Experimental data as given in patent US7351693B2, “Peptides and nucleic acids of the cathelicidin family, derived from fish, and uses thereof” (priority 2002, dated 2008).
Numbered stars: 1 amine (or outer) side, 2 acyl side, 3 side chain; on linkers, the order of the positions; unused ones are H or OH. Bridge positions count the residues as written; N and C are the ends. Square brackets hold non-standard residues; d marks the D form. Peptide text beside a SMILES is read from it. I, II: the chains in the order shown. Actinocin(9to1) = Cc1c2oc3c(C)ccc(C(=O)[*:1])c3nc-2c(C(=O)[*:2])c(N)c1=O; NMeV = CN[C@H](C(=O)O)C(C)C; Sar = CNCC(=O)O

Test system: trout bactenecin gene
Test: RT-PCR analysis of trout bactenecin (cathelicidin) expression in stimulated head kidney leucocytes
Assay type: cell-based, rainbow trout
Conditions: for effect on LPS-stimulated expression of trout bactenecin: added 3 h after LPS stimulation (5 μg/ml), FIG. 14
Protocol: Rainbow trout head kidney leucocytes were obtained by disrupting the head kidney tissue through a 100 μm nylon mesh. After washing, the leucocytes were suspended in L15 medium (Gibco) and stimulated as follows: • (A) LPS time course: Cells were stimulated with 5 μg/ml of E. coli 0127:B8 lipopolysaccharide (LPS, Sigma) for different time periods (0, 0.5 h, 1 h, 2 h, 3 h, 4 h). • (B) Transcription/translation inhibition: Streptomyces actinomycin D (Sigma) at 100 ng/ml was added to the cells after 3 h of LPS induction (5 μg/ml) to inhibit transcription. Alternatively cycloheximide at 10 μg/ml was added to the cells after 3 h of LPS stimulation (as above) to inhibit translation. • (C) Different inducers: 5 μg/ml of Phytohemagglutinin (PHA, Sigma), 25 ng/ml of Phorbol Myristate Acetate (PMA, Sigma) alone, or in combination with 5×10^−7M of Calcium Ionophore (Sigma) were added to the cells for 4 h.
At the end of the relevant time period, total RNA was isolated from approximately 2×10^7 cells, with RNAzol B (Biogenesis) according to the manufacturer's instructions. The RNA was then reverse transcribed to cDNA and the product used as template in PCRs for the trout cathelicidin gene and β-actin as a positive control. The primers used for the amplification of the cathelicidin gene were fF1 (5′-[…]-3′ SEQ ID NO: 80) and R1 (5′-[…]-3′ SEQ ID NO: 81), and for the β-actin were forward (5′-ATGGAAGATGAAATCGCC-3′ SEQ ID NO: 82) and reverse (5′-TGCCAGATCTTCTCCATG-3′ SEQ ID NO: 83). The PCR reaction mix was as follows: 5 μl of phage mix, 1.5 μl 10 mM dNTPs mix, 0.125 μl of 5 units/μl Taq DNA Polymerase, 2.5 μl 10×NH4 buffer, 0.75 μl 50 mM MgCl2, 1.5 μl forward primer, 1.5 μl reverse primer and 12.125 μl of dH2O. The cycling protocol was as follows: initial melting at 94° C. for 4 min, followed by 30 cycles of 94° C. for 45 sec, 60° C. for 45 sec, 72° C. for 1 min, with a final elongation at 72° C. for 10 min. The expected size of the products was 320 bp for the cathelicidin gene and 260 bp for β-actin.

SMILES | effect on LPS-stimulated expression of trout bactenecin | induction of trout bactenecin expression in leucocytes (after 4 h of induction, FIG. 13)
Cc1c2oc3c(C)ccc(C(=O)N[C@@H]4C(=O)N[C@H](C(C)C)C(=O)N5CCC[C@H]5C(=O)N(C)CC(=O)N(C)[C@@H](C(C)C)C(=O)O[C@@H]4C)c3nc-2c(C(=O)N[C@@H]2C(=O)N[C@H](C(C)C)C(=O)N3CCC[C@H]3C(=O)N(C)CC(=O)N(C)[C@@H](C(C)C)C(=O)O[C@@H]2C)c(N)c1=O [actinomycin D] (I: T[dV]P[Sar][NMeV] / II: T[dV]P[Sar][NMeV]; ester I:1-I:C, II:1-II:C; linker I:N-II:N via Actinocin(9to1)) | inhibited completely | 
C[C@@H]1C[C@@H]([C@H](O)CC2CC(=O)NC(=O)C2)C(=O)[C@@H](C)C1 [Cycloheximide, cycloheximide] | did not induce a superinduction | 
CCCCCCCCCCCCCC(=O)O[C@@H]1[C@@H](C)[C@@]2(O)[C@@H](C=C(CO)C[C@]3(O)C(=O)C(C)=C[C@@H]23)[C@@H]2C(C)(C)[C@]12OC(C)=O [PMA, Phorbol Myristate Acetate] |  | only PMA+calcium ionophore induced expression
